Earlier results, collected in patent US11491229B2, “Medication system” (priority 2015, dated 2022).

How the values were obtained:
[1] = test system: cannabinoid receptors
[2] = test system: breast tumors; settings: mice models
[3] = test system: estrogen receptor-positive and estrogen receptor-negative breast cancer cell lines; settings: inducing apoptosis in a concentration-dependent manner
[4] = test system: nontumorigenic mammary cells
[5] = target: T1, androgen receptor in the prostate gland (Homo sapiens, UniProt P10275)
T1 sequence (P10275 1-920): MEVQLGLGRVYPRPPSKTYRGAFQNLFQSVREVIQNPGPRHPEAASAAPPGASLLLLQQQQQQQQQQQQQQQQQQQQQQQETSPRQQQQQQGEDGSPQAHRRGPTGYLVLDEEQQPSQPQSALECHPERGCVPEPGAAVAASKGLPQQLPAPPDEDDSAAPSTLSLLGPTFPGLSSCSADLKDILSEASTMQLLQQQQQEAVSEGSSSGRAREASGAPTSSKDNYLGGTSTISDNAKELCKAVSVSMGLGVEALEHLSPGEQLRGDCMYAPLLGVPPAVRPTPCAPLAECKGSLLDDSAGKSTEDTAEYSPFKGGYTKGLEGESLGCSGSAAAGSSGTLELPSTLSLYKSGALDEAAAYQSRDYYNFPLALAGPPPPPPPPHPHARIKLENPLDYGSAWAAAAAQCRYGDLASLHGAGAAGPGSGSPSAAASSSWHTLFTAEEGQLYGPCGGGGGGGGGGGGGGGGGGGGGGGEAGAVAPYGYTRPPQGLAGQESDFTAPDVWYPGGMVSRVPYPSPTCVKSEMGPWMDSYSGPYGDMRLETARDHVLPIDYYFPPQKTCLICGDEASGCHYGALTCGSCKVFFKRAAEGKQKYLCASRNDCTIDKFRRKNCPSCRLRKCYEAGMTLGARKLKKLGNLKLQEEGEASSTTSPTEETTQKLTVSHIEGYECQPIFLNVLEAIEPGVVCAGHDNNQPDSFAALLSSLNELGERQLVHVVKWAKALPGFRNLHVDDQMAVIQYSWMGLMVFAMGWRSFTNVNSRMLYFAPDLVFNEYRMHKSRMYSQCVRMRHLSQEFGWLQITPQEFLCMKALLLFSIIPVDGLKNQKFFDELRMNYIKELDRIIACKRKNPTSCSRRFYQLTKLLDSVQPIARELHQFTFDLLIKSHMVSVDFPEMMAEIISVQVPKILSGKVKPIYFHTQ

[6] = test system: prostate cell line, PC-3; settings: Ruiz et al. 1999
[7] = target: CB1 receptor (Homo sapiens, UniProt P21554)
Chain of CB1 receptor (P21554 whole entry): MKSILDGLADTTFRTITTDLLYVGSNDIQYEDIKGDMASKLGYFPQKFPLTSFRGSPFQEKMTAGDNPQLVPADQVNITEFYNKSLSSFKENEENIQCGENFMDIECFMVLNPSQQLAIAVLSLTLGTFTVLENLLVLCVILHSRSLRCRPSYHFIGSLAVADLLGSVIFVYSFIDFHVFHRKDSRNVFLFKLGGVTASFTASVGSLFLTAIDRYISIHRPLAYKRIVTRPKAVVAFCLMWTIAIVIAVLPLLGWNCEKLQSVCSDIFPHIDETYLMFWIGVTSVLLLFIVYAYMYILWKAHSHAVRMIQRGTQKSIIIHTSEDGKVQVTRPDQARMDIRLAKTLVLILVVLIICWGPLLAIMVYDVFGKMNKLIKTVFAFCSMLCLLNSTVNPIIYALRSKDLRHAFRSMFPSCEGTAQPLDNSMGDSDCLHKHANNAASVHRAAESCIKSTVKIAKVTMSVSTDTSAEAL

[8] = not given; remark: listed apart in the source

## C=C(C)[C@@H]1CCC(C)=C[C@H]1c1c(O)cc(CCCCC)cc1O [CBD, Cannabidiol]
[1]
  affinity to cannabinoid receptors: low affinity
[2]
  effect on breast tumors: shrink breast tumors, and obstruct growth and metastasis
[3]
  survival of breast cancer cell lines: inhibited the survival
[4]
  effect on nontumorigenic mammary cells: little effect

## CCCCCc1cc(O)c2c(c1)OC(C)(C)[C@@H]1CCC(C)=C[C@@H]21 [THC, Tetrahydrocannabinol]
[5]
  specific binding of dihydroxytestosterone to the androgen receptor: inhibits specific binding
[6]
  apoptosis: causes apoptosis
cold-pressor test
  time after administration at which pain reduction effects were felt (average): 180 min
cold-pressor test after administration, smoked marijuana or oral dronabinol capsules 10 mg or 20 mg
  pain sensitivity: decreased pain sensitivity
Dronabinol compared with smoked marijuana
  duration of effects: lasted longer than smoked marijuana

## CCCc1cc(O)c2c(c1)OC(C)(C)[C@@H]1CCC(C)=C[C@@H]21 [THCV, Tetrahydrocannabivarin]
[7]
  CB1 receptor mode of action: antagonist

## vitamin E
[8]; pre-menopausal women with a family history of breast cancer, highest quantity of vitamin E consumed
  reduction in breast cancer incidence: 43%
[8]; women without a family history of breast cancer
  risk reduction of breast cancer: 16%
